Reference: patent publication US9862723B2, “Stable polymorph of the salt of (2R)-4-oxo-4-[3-(trifluoromethyl)-5,6-dihydro[1,2,4]triazolo[4,3-α]pyrazin-7(8H)-yl]-1-(2,4,5-trifluorophenyl)butan-2-anime with L-tartaric acid” (ZENTIVA k.s, priority 2013, dated 2018)

Assay: Relative stability of the crystalline forms of sitagliptin L-tartrate (polymorph transformation on contamination/seeding with Form Z1)
Assay type: physicochemical
Settings: for stability of the crystalline form (polymorph) relative to the other form: comparison of WO 2005/072530 crystalline form with Form Z1 of sitagliptin L-tartrate, further experiments
Source text: When studying the properties of salts of (2R)-4-oxo-4-[3-(trifluoromethyl)-5,6-dihydro[1,2,4]triazolo[4,3-α]pyrazin-7(8H)-yl]-1-(2,4,5-trifluorophenyl)butan-2-amine (sitagliptin), a quite new polymorph (Form Z1) of the salt of (2R)-4-oxo-4-[3-(trifluoromethyl)-5,6-dihydro[1,2,4]triazolo[4,3-α]pyrazin-7(8H)-yl]-1-(2,4,5-trifluorophenyl)butan-2-amine (sitagliptin) with L-tartaric acid has been successfully obtained, characterized by the following reflections in the X-ray powder pattern: 5.9; 9.8; 14.2; 19.5; 23.8 and 26.2±0.2° 2-theta.
Preparation of the Salt of (2R)-4-oxo-4-[3-(trifluoromethyl)-5,6-dihydro[1,2,4]triazolo[4,3-α]pyrazin-7(8H)-yl]-1-(2,4,5-trifluorophenyl)butan-2-amine with L-tartaric acid (Mixture of Forms) The salt of (2R)-4-oxo-4-[3-(trifluoromethyl)-5,6-dihydro[1,2,4]triazolo[4,3-α]pyrazin-7(8H)-yl]-1-(2,4,5-trifluorophenyl)butan-2-amine (sitagliptin) with L-tartaric acid, prepared in accordance with Example 1 (according to WO 2005/072530) (2 g) was suspended in propan-2-ol (50 ml) and the suspension was heated up to 50° C. under constant agitation. The polymorph Z1 (0.1 g) prepared in accordance with Example 2 was added to the white suspension. The mixture was agitated at the same temperature for 20 minutes and after cooling to 20° C. the product was filtered off and washed with a small amount of propan-2-ol. The obtained product was dried in a vacuum drier at 40° C. 1.9 g of a mixture of forms was obtained, Form Z1 being enriched considerably.

SMILES | stability of the crystalline form (polymorph) relative to the other form | transformation of the original polymorph to Form Z1 (inconsiderable contamination by Form Z1, even under the conditions in which the original crystalline form is prepared)
N[C@@H](CC(=O)N1CCn2c(nnc2C(F)(F)F)C1)Cc1cc(F)c(F)cc1F.O=C(O)C(O)C(O)C(=O)O [Form Z1, salt of (2R)-4-oxo-4-[3-(trifluoromethyl)-5,6-dihydro[1,2,4]triazolo[4,3-α]pyrazin-7(8H)-yl]-1-(2,4,5-trifluorophenyl)butan-2-amine (sitagliptin) with L-tartaric acid] | more stable | –
N[C@@H](CC(=O)N1CCn2c(nnc2C(F)(F)F)C1)Cc1cc(F)c(F)cc1F.O=C(O)C(O)C(O)C(=O)O [previously described crystalline form, Salt of (2R)-4-oxo-4-[3-(trifluoromethyl)-5,6-dihydro[1,2,4]triazolo[4,3-α]pyrazin-7(8H)-yl]-1-(2,4,5-trifluorophenyl)butan-2-amine with L-tartaric acid] | significantly less stable | very quick transformation
